# Patent US10995068B2, “Synthetic sphingolipid-like molecules, drugs, methods of their synthesis and methods of treatment” (The Regents of the University of California, priority 2015, dated 2021)
# Tested on: mouse prostate cancer epithelial cells (mPCE)
# Assay: LDL receptor, LDL uptake and lipid droplets in mPCE cells
# Type: cell-based
# Description: To determine the sensitivity, SH-BC-893 was evaluated in a validated genetically-engineered mouse model for invasive castration-resistant prostate cancer that lacks p53 and PTEN expression exclusively in the prostate (pDKO) (Wu X, et al. Am J Clin Exp Urol. 2014; 2(2):111-20; Schwarzenböck S, et al. Theranostics. 2012; 2(3):318-330; Chen Z, et al. Nature. 2005; 436(7051):725-730; the disclosures of which are herein incorporated by reference). […] SH-BC-893, however, still produced a phenotype consistent with starvation as the bound NADH fraction increased and cell permeant nutrients protected mPCE cells from death (FIGS. 65A and 65C). Prostate cancer cells depend on exogenous LDL for growth and survival. […]
# Light Microscopy: Brightfield and epifluorescence microscopy were conducted using a Nikon TE2000-S fluorescence microscope; confocal microscopy was performed on a Zeiss LSM780 confocal microscope or Nikon Eclipse Ti spinning disk confocal microscope. […] Co-localization was determined using JACoP plugin in ImageJ software. Macropinocytosis was measured after 16 h incubation in serum-free DMEM. p53−/−; LSL-K-RasG12D MEFs before (LSL) or after (KRasG12D) introduction of Cre were serum starved for 16 h and then treated with macropinocytosis inhibitor 5-(N-ethyl-N-isopropyl) amiloride (EIPA, 75 μM) for 1 h or SH-BC-893 for 6 h. […]
smiles,measurement,value
"CCCCCCCCc1ccc([C@H]2CCN[C@@H]2CO)cc1.Cl [Compound 5, (2S,3R)-2-(hydroxymethyl)-3-(4-octylphenyl)Pyrrolidinium chloride]","surface levels of the LDL receptor (LDLr), LDL uptake, and lipid droplet accumulation",dramatically decreased
